According to patent US20210353579A1, “HIGH PENETRATION COMPOSITIONS AND USES THEREOF” (Techfields Pharma Co., Ltd., priority 2006, published 2021):

What was measured:
[1] = system: Human breast cancer cells (BCAP-37); assay: Human breast cancer xenograft in nude mice, topical; settings: day 42; 30 μl of 5% (1.5 mg) topically every 8 hours from day 14; control 800 ± 100
Summary of the method: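 BCAP-37 tumour tissue (2-3 mm^3) was xenografted subcutaneously into the front leg of nude BALB mice, 7 per group. Compounds were applied topically as 30 μl of 5% solution (1.5 mg) in acetone or water.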

[2] = system: Human colon cancer cells (LS174J); assay: Human colon cancer xenograft in nude mice, topical; settings: day 30, about 30 μl of 5% solution (1.5 mg) topically applied
From the text: Human colon cancer cells (LS174J, 2-3 mm^3 of tumor tissue was used in each mouse) are subcutaneously xenografted into the front leg of nude mice (BALB).

[3] = system: mice (MRL/LPR); assay: Anti-lupus erythematosus activity; type: in vivo, mouse; settings: 30 mg/kg topically twice per day, after 6 weeks
[4] = system: Chinese white rabbits; assay: Malassezia-induced lesions similar to psoriasis; type: in vivo, rabbit; settings: 5% aqueous solution twice per day, 10 days after application
From the text: Heavy suspensions of Malassezia [Rosenberg, E. W., et al., Mycopathologia, 72, 147-154 (1980)] were applied to the shaved skin on the backs of the Chinese white rabbits (n=4×6) twice (at 7 am and 7 pm) per day for 2 weeks, lesions similar to psoriasis resulted.

[5] = system: rats (SLAC/GK, type 2 diabetes); assay: Blood lipid in type 2 diabetes rats, oral with food; type: in vivo, rat
From the text: (§1) 20% acetone solution of diethylaminoethyl acetylsalicylate.acetylsalicylic acid salt (P-1, in acetone); 4-acetamidophenyl salicylyldimethylaminobutyrate.HCl (P-6), diethylaminoethyl 5-(2,4-difluorophenyl) acetylsalicylate.5-(2,4-difluorophenyl) acetylsalicylic acid salt (P-8), diethylaminoethyl salicylsalicylate.AcOH (P-9), diethylaminoethyl salicylate.AcOH (P-10), diethylaminoethyl 5-acetamido-acetylsalicylate (P-58), diethylaminoethyl acetylsalicylsalicylate. acetylsalicylsalicylic acid salt (P-59), diethylaminoethyl acetylsalicylsalicylate. acetylsalicylsalicylsalicylic acid salt (P-60) (equal to of 20 mg/kg of NSAIAs) were mixed with food and were orally administered to the rats (SLAC/GK, type 2 diabetes, n=7) with food every day for 5 weeks. The blood glucose levels were measured once every 3 days at 3 pm (no fasting) from the second week to the fifth week. The blood lipid levels were measured at the end of the fifth week.

[6] = system: normal rats; assay: Blood glucose in normal rats, transdermal; type: in vivo, rat
From the text: HPPs lower blood glucose level in rat models (SLAC/GK, type 2 diabetes, n=7). 50% acetone solution of diethylaminoethyl acetylsalicylate.acetylsalicylic acid salt (P-1, in acetone); 4-acetamidophenyl salicylyldimethylaminobutyrate.HCl (P-6), diethylaminoethyl 5-(2,4-difluorophenyl) acetylsalicylate.5-(2,4-difluorophenyl).acetylsalicylic acid salt (P-8), diethylaminoethyl salicylsalicylate.AcOH (P-9), diethylaminoethyl salicylate.AcOH (P-10), diethylaminoethyl 5-acetamido-acetylsalicylate (P-58), diethylaminoethyl acetylsalicylsalicylate.acetylsalicylsalicylic acid salt (P-59), diethylaminoethyl acetylsalicylsalicylate.acetylsalicylsalicylsalicylic acid salt (P-60) (equal to of 20 mg/kg of NSAIAs) are administered transdermally to the backs (about 1.5 cm^2) of rats (fur was shaved) once per day (at 8 am) for 5 weeks. The blood glucose levels are measured once every 3 days at 3 pm (no fasting) from the second week to the fifth week (Table 24). The blood lipid levels are measured at the end of the fifth week (Table 25). […]

[7] = system: rats (SLAC/GK, type 2 diabetes); assay: Blood glucose in type 2 diabetes rats, oral with food; type: in vivo, rat
From the text: as §1

[8] = system: rats (SLAC/GK, type 2 diabetes); assay: Blood glucose in type 2 diabetes rats, transdermal; type: in vivo, rat; settings: diabetic rats (SLAC/GK)
From the text: (§2) HPPs lower blood glucose level in rat models (SLAC/GK, type 2 diabetes, n=7). 50% acetone solution of diethylaminoethyl acetylsalicylate.acetylsalicylic acid salt (P-1, in acetone); 4-acetamidophenyl salicylyldimethylaminobutyrate.HCl (P-6), diethylaminoethyl 5-(2,4-difluorophenyl) acetylsalicylate.5-(2,4-difluorophenyl).acetylsalicylic acid salt (P-8), diethylaminoethyl salicylsalicylate.AcOH (P-9), diethylaminoethyl salicylate.AcOH (P-10), diethylaminoethyl 5-acetamido-acetylsalicylate (P-58), diethylaminoethyl acetylsalicylsalicylate.acetylsalicylsalicylic acid salt (P-59), diethylaminoethyl acetylsalicylsalicylate.acetylsalicylsalicylsalicylic acid salt (P-60) (equal to of 20 mg/kg of NSAIAs) are administered transdermally to the backs (about 1.5 cm^2) of rats (fur was shaved) once per day (at 8 am) for 5 weeks. The blood glucose levels are measured once every 3 days at 3 pm (no fasting) from the second week to the fifth week (Table 24). The blood lipid levels are measured at the end of the fifth week (Table 25).

[9] = system: normal rats; assay: Blood glucose in normal rats, oral with food; type: in vivo, rat
[10] = system: rats (SLAC/GK, type 2 diabetes); assay: Blood lipid in type 2 diabetes rats, transdermal; type: in vivo, rat
From the text: as §2

[11] = system: Chinese white rabbits; assay: Autologous blood clot pulmonary embolization, thrombus propagation; type: in vivo, rabbit; settings: 20 mg/kg topically, after 2 days
Method: Eighteen Chinese White rabbits weighing between 3.0 and 3.5 kg (aged 6-7 months) were selected and divided into three groups (control, P-1 and […] groups, n=6). One hour before the experiment, thrombi were made by aspirating venous blood (1 ml) into a sterilized bottle to clot. To avoid fragmentation and slow lysis, the autologous blood clots were stabilized in temperature-controlled (70° C.) distilled water for 10 min. After anesthesia, the femoral veins were exposed and distally isolated, and autologous blood clots (0.05 g/kg) were injected through an indwelling catheter (20 GA), which had been placed in the femoral vein isolated earlier. 50% acetone solution of diethylaminoethyl acetylsalicylate.acetylsalicylic acid salt (P-1, in acetone, 20 mg/kg) and diethylaminoethyl acetylsalicylsalicylate. acetylsalicylsalicylic acid salt (P-59, 20 mg/kg) were topically applied to the back of the rabbits. After 2 days, rabbits were euthanized with an excessive intravenous injection of sodium amobarbital (60 mg/kg). The lungs and hearts were isolated to observe whether thrombi were present in the pulmonary arteries. The lungs were immersed in 10% formalin for 24 h. Consecutive transverse sections along the obstructed pulmonary arteries were paraffin-embedded and stained with hematoxylin-eosine. […]

[12] = system: mice (SLAC:NOD-IDDM, type 1 diabetes); assay: Blood glucose in type 1 diabetes mice, transdermal; type: in vivo, mouse
From the text: The pro-drugs in this invention lower blood glucose levels in mouse models (SLAC:NOD-IDDM, type 1 diabetes, n=7). 50% acetone solution of diethylaminoethyl acetylsalicylate.acetylsalicylic acid salt (P-1, in acetone); 4-acetamidophenyl salicylyldimethylaminobutyrate.HCl (P-6), diethylaminoethyl 5-(2,4-difluorophenyl) acetylsalicylate.5-(2,4-difluorophenyl) acetylsalicylic acid salt (P-8), diethylaminoethyl salicylsalicylate.AcOH (P-9), diethylaminoethyl salicylate.AcOH (P-10), diethylaminoethyl 5-acetamido-acetylsalicylate (P-58), diethylaminoethyl acetylsalicylsalicylate. acetylsalicylsalicylic acid salt (P-59), diethylaminoethyl acetylsalicylsalicylate. acetylsalicylsalicylsalicylic acid salt (P-60) (equal to of 30 mg/kg of NSAIAs) were administered transdermally to the backs (about 1.5 cm^2) of mice (fur was shaved) once per day (at 8 am) for 7 weeks. The blood glucose levels were measured once every 3 days at 3 pm (no fasting) from the fourth week to the seventh week.

[13] = 1 hour after 50 mg/kg on the back of sheep, 10% aqueous solution
[14] = system: cats with ocular hypertension; assay: Intraocular pressure in cats with ocular hypertension; type: in vivo, cat; settings: group B
Method: The ability of diethylaminoethyl acetylsalicylate.HCl to reduce intraocular pressure (IOP) was evaluated in cats with ocular hypertension produced by previously done laser trabeculoplastry. IOP was determined with a pneumatonometer after light corneal anesthesia with dilute proparacaine. 14 Cats were divided into 2 groups. Baseline IOP was determined prior to treatment with the test compound aqueous solution. […] In group B, 30 mg/kg of diethylaminoethyl acetylsalicylate.HCl the area around eye (outside) of cat trice per day for 10 days.

[15] = baseline, equal to 20 mg/kg of NSAIAs
[16] = end of the fifth week, equal to 20 mg/kg of NSAIAs every day
[17] = end of the fifth week, equal to 20 mg/kg of NSAIAs once per day

Structure (SMILES): CC(=O)O.CC(C)Cc1ccc(C(C)C(=O)OCC2CCCNC2)cc1 (stereo not shown) [P-5, 3-piperidinemethyl 2-(ρ-isobutylphenyl) propionate.AcOH]
- Tumor size [1]: 190 ± 50 mm^3
- Tumor size [2]: 390 ± 110 mm^3
- skin lesions and lupus nephritis [3]: all skin lesions and lupus nephritis were resolved
- lesions similar to psoriasis [4]: the lesions were resolved

Structure (SMILES): CC(=O)Oc1ccccc1C(=O)Oc1ccccc1C(=O)O.CCN(CC)CCOC(=O)c1ccccc1OC(=O)c1ccccc1OC(C)=O [P-59, diethylaminoethyl acetylsalicylsalicylate.acetylsalicylsalicylic acid salt]
- Cholesterol (HDL), Baseline [5, 15]: 1.9 ± 0.2 mmol/L
- Cholesterol (total), Baseline [5, 15]: 7.7 ± 0.6 mmol/L
- Triglycerides, Baseline [5, 15]: 5.4 ± 0.6 mmol/L
- Cholesterol (HDL), Average [5, 16]: 1.8 ± 0.2 mmol/L
- Cholesterol (total), Average [5, 16]: 5.7 ± 0.3 mmol/L
- Triglycerides, Average [5, 16]: 2.7 ± 0.2 mmol/L
- Blood glucose, Average ([6]; normal rats (second Average line of Table 24), average second to fifth week, equal to 20 mg/kg of NSAIAs once per day): 7.3 ± 1 mmol/L
- Blood glucose, Baseline ([6]; normal rats (second Baseline line of Table 24), baseline, equal to 20 mg/kg of NSAIAs): 7.2 ± 1 mmol/L
- Blood glucose, Diabetic rats, Average ([7]; average second to fifth week, no fasting, equal to 20 mg/kg of NSAIAs every day for 5 weeks): 8.6 ± 1 mmol/L
- Blood glucose, Diabetic rats, Baseline [7, 15]: 15.3 ± 3 mmol/L
- Blood glucose, Average ([8]; average second to fifth week, no fasting, equal to 20 mg/kg of NSAIAs once per day for 5 weeks): 8.7 ± 1 mmol/L
- Blood glucose, Baseline ([8]; baseline, equal to 20 mg/kg of NSAIAs once per day): 16.3 ± 3 mmol/L
- Blood glucose, Normal rats, Average ([9]; average second to fifth week, equal to 20 mg/kg of NSAIAs every day): 7.3 ± 1 mmol/L
- Blood glucose, Normal rats, Baseline [9, 15]: 7.5 ± 1 mmol/L
- Cholesterol (HDL), Baseline [10, 15]: 1.6 ± 0.2 mmol/L
- Cholesterol (total), Baseline [10, 15]: 7.6 ± 0.6 mmol/L
- Triglycerides, Baseline [10, 15]: 5.6 ± 0.5 mmol/L
- Cholesterol (HDL), Average [10, 17]: 1.6 ± 0.2 mmol/L
- Cholesterol (total), Average [10, 17]: 5.1 ± 0.3 mmol/L
- Triglycerides, Average [10, 17]: 1.9 ± 0.2 mmol/L
- lung tissue and vascular walls (thrombus propagation) [11]: both lung tissue and vascular walls were normal
- Blood glucose, Average ([12]; average fourth to seventh week, no fasting, equal to 30 mg/kg of NSAIAs once per day for 7 weeks): 8.7 ± 1 mmol/L
- Blood glucose, Baseline ([12]; baseline, equal to 30 mg/kg of NSAIAs): 24.3 ± 3 mmol/L

Structure (SMILES): CCN(CC)CCOC(=O)C(C)c1ccc(CC(C)C)cc1.O=C(O)CC(O)(CC(=O)O)C(=O)O (stereo not shown) [diethylaminoethyl 2-(ρ-isobutylphenyl)propionate. citric acid salt]
- ibuprofen found in the milk [13]: 55 ± 8 µg/mL
- ibuprofenamine found in the milk [13]: 10 ± 5 µg/mL

Structure (SMILES): CCN(CC)CCOC(=O)c1ccccc1OC(C)=O.Cl [diethylaminoethyl acetylsalicylate•HCl]
- Intraocular pressure, Base-line ([14]; base-line, prior to treatment, 30 mg/kg around the eye): 24.1 ± 0.7
- Intraocular pressure, End of treatment (day10) ([14]; day 10, 30 mg/kg applied to the area around the eye for 10 days): 16.1 ± 0.5
